According to PMC9693510, “High-Throughput Metabolic Soft-Spot Identification in Liver Microsomes by LC/UV/MS: Application of a Single Variable Incubation Time Approach” (Molecules, 2022):
Read-outs that look alike come from different tables or passages of the source.

Experiments:
[1] = Metabolic soft-spot determination in HLM using LC/UV/Qtrap
Protocol: A specific incubation time for the individual test compounds was set up for 1–20 min based on their metabolic stability T1/2 values (Table 1). An LC/UV/Qtrap system with an Ultimate XB-C18 column (100 mm × 2.1 mm, 1.8 µm, Welch, China) was employed for quantitative and qualitative analyses of metabolites of the test compounds in HLM incubations. The mobile phases were the same as the metabolic stability assay, and the flow rate was 0.3 mL/min. […] The mass spectrometer was operated in positive ion mode using a successive multiple ion monitoring-triggered enhanced product ion scan (MIM-EPI) mode. […] All the ion source parameters were set as the following values: CUR: 30 psi; IS: 5500 V; TEM: 500 °C; GS1 and GS2: 50 psi; DP: 70 V. A criterion for the data-dependent EPI was set for the three most intense ions in each dynamic background subtraction (DBS) survey scan spectrum with an intensity threshold of 500 cps. The CE was set to 5 eV for the survey scan and 40 eV with CE spread (CES) of 15 eV for the dependent EPI scan. The scan speed for ER and EPI were 250 amu/s and 20,000 amu/s, respectively. LC/UV profiles of individual incubation were generated to reveal major metabolites using wavelengths on the λmax of parent compounds (Table S1). Protonated molecules of major metabolites were determined by matching major metabolite peak(s) in LC/UV profiles to similar ion peaks shown in LC/MS profiles from the MIM scanning or data processing. EIC, PIF, and NLF tools on PeakView SoftwareTM 1.2 (AB SCIEX, Foster City, CA, USA) were used to process LC/MS and LC/MS2 datasets. MS/MS spectral data of major metabolites were retrieved from corresponding LC/MS2 data based on their protonated molecules. The structural characterization of major metabolites was carried based on interpretation of their MS/MS spectra and biotransformation knowledge.

in vitro = details: human, microsomes, pH 7.4
[2] = Metabolic soft-spot determination in HLM using LC/UV/Q-TOF (Triple TOF); details: 8 min
Protocol: (§1) Supernatants of incubation samples were dried under nitrogen and then reconstituted in 100 μL of 5% acetonitrile in water prior to analysis using LC/UV/HRMS.
(§2) An LC/MS system consisted of an LC instrument (Shimadzu HPLC with a photodiode array detector (PDA), Shimadzu, Kyoto, Japan) and TripleTOF (AB 4600, Sciex, Framingham, MA, USA) was employed. LC separation was carried out using a Phenomenex Kinetex-C18 (2.1 × 150 mm, 2.6 μm, CA) and a mobile phase comprised of 0.1% formic acid (v/v) in water (solvent A) and 0.1% formic acid in acetonitrile (v/v) (solvent B). The total running time was 5 min, and the flow rate was 0.4 mL/min. […] The mass spectrometer was operating in the positive electrospray ionization mode in the m/z range of 100–1000. Dynamic background subtraction (DBS) was employed to record full-scan MS and MS/MS data simultaneously. Two approaches were used for finding and confirming protonated molecules of major metabolites. One approach was to directly get the information by reviewing full-scan MS spectra of peaks in unprocessed LC/MS dataset, which had very similar LC retention times and peak shapes to those of major metabolites shown in corresponding LC/UV profiles.

[3] = 0.5 µM, HLM 0.5 mg/mL, 60 min, LC/MS analysis of the parent drug; cited from earlier work
[4] = human, 3 µM, pH 7.4; for Major metabolites relative abundance (% of total UV peak areas of drug and its metabolites): 60 min
Protocol: as §1, §2

[5] = Determination of metabolic stability in HLM; details: human, microsomes, pH 7.4
[6] = HLM, 10 µM, 60 min, cited from earlier work

In the case of `CCNCc1cc(Nc2ccnc3cc(Cl)ccc23)ccc1O` [AM1], the “Major metabolites relative abundance (% of total UV peak areas of drug and its metabolites)” value ([1]; human, 1 min, 3 µM, pH 7.4) is reported as “Deethylation: AM1 (26.5%)”.
For `CCN(CC)Cc1cc(Nc2ccnc3cc(Cl)ccc23)ccc1O` [Amodiaquine, amodiaquine], the “Disappearance of the parent” value ([1]; human, 1 min, 3 µM, pH 7.4) was 23%, the “The parent drug relative abundance (% of total UV peak areas of drug and its metabolites)” value ([1]; human, 1 min, 3 µM, pH 7.4) was “Amodiaquine (77.0%)” and the half-life at 0.5 µM (in vitro) was 1.3 min.
For `O=C1CC2(CCC(O)C2)CC(=O)N1CCCCN1CCN(c2ncccn2)CC1` (centres unmarked) [B3], the “Major metabolites relative abundance (% of total UV peak areas of drug and its metabolites)” value ([2]; buspirone 3 μM) was 12.1%.
For `O=C1CC2(CCCC2)C(O)C(=O)N1CCCCN1CCN(c2ncccn2)CC1` (centres unmarked) [B10], the “Major metabolites relative abundance (% of total UV peak areas of drug and its metabolites)” value ([2]; buspirone 3 μM) was 16.5%.
With `O=C1CC2(CCCC2)CC(=O)N1CCCCN1CCN(c2ncc(O)cn2)CC1` [B12] the “Major metabolites relative abundance (% of total UV peak areas of drug and its metabolites)” value ([2]; buspirone 3 μM) was 5.2%.
For `O=C1CC2(CCCC2)CC(=O)N1CCCC[N+]1([O-])CCN(c2ncccn2)CC1` [B15], the “Major metabolites relative abundance (% of total UV peak areas of drug and its metabolites)” value ([2]; buspirone 3 μM) was 7.1%.
In the case of `O=C1CC2(CCCC2)CC(=O)N1CCCCN1CCN(c2ncccn2)CC1` [Buspirone, buspirone, reference compound], the “T1/2 in HLM” value [3] is given as “Buspirone ^d (7.6 min)” and the “The parent drug relative abundance (% of total UV peak areas of drug and its metabolites)” value ([4]; 8 min) is given as “Buspirone (59.1%)”.
In the case of `COc1ccc2c(c1)[C@]13CCCC[C@@H]1[C@H](C2)N(C)CC3` [Dextromethorphan, dextromethorphan], the “The parent drug relative abundance (% of total UV peak areas of drug and its metabolites)” value ([1]; dextromethorphan 3 μM, 30 min, HLM) is reported as “Dextromethorphan (75.5%)”, the “The parent drug relative abundance (% of total UV peak areas of drug and its metabolites)” value ([1]; dextromethorphan 3 μM, 30 min, HLM, listed as dextromethorphan) is reported as 75.5% and the half-life at 0.5 µM [5] is reported as 24 min.
For `CN1CCN2c3ncc(O)cc3Cc3ccccc3C2C1` (centres unmarked) [M1], the “Major metabolites relative abundance (% of total UV peak areas of drug and its metabolites)” value [4] was 10.7%.
For `c1ccc2c(c1)Cc1cccnc1N1CCNCC21` (centres unmarked) [M2], the “Major metabolites relative abundance (% of total UV peak areas of drug and its metabolites)” value [4] was 8.1%.
In the case of `OCc1ncc2n1-c1ccc(Cl)cc1C(c1ccccc1F)=NC2` [MM2], the “Major metabolites relative abundance (% of total UV peak areas of drug and its metabolites)” value ([1]; midazolam 3 μM, 2 min, HLM) is reported as “Mono-oxidation: MM2 (29.0%)”.
In the case of `Cc1ncc2n1-c1ccc(Cl)cc1C(c1ccccc1F)=NC2` [Midazolam, midazolam], the “Disappearance of the parent” value ([1]; midazolam 3 μM, 2 min, HLM) is reported as 31%.
With `CNCCCC(C#N)(c1ccc(OC)c(OC)c1)C(C)C` (centres unmarked) [V1] the “Major metabolites relative abundance (% of total UV peak areas of drug and its metabolites)” value ([2]; verapamil 5 μM) was 6.1%.
With `COc1ccc(CCNCCCC(C#N)(c2ccc(OC)c(OC)c2)C(C)C)cc1OC` (centres unmarked) [V5] the “Major metabolites relative abundance (% of total UV peak areas of drug and its metabolites)” value ([2]; verapamil 5 μM) was 14.7%.
For `CNCCCC(C#N)(c1ccc(OC)c(OC)c1)C(C)C` (centres unmarked) [VM2], the “Major metabolites relative abundance (% of total UV peak areas of drug and its metabolites)” value ([1]; human, 4 min, 3 µM, pH 7.4) was 8.9%.
With `COc1ccc(CCNCCCC(C#N)(c2ccc(OC)c(OC)c2)C(C)C)cc1OC` (centres unmarked) [VM8] the “Major metabolites relative abundance (% of total UV peak areas of drug and its metabolites)” value ([1]; human, 4 min, 3 µM, pH 7.4) was 19.0%.
For `CN(C)CCC1(c2ccccc2)CCc2ccccc2C1=O` (centres unmarked) [nafenodone], the “Disappearance of the parent” value ([6]; estimated) is listed as “over 80%” and the “Number of oxidative metabolites formed” value [6] is listed as 26.
